According to patent publication US11427549B2, “Pyrimidinyloxy benzo-fused compounds as herbicides” (FMC Corporation, priority 2017, dated 2022):

How the values were obtained:
Format in all cases: in vivo
[1] = system: foxtail, green (green foxtail, Setaria viridis); assay: Test A postemergence, foxtail, green; conditions: Setaria, post-emergence, 240 h, 0 to 100 scale (0 no effect, 100 complete control), read-out: Plant response rating, Foxtail, Green; for pest or weed control at 125 g/ha: 125 g ai/ha; for pest or weed control at 500 g/ha: 500 g ai/ha; for pest or weed control at 31 g/ha: 31 g ai/ha
Description: (§1) Seeds of plant species selected from barnyardgrass (Echinochloa crus-galli), kochia (Kochia scoparia), ragweed (common ragweed, Ambrosia elatior), ryegrass, Italian (Italian ryegrass, Lolium multiflorum), foxtail, giant (giant foxtail, Setaria faberii), foxtail, green (green foxtail, Setaria viridis) and pigweed (Amaranthus retroflexus) were planted into a blend of loam soil and sand and treated preemergence with a directed soil spray using test chemicals formulated in a non-phytotoxic solvent mixture which included a surfactant.
(§2) At the same time, plants selected from these weed species and also wheat (Triticum aestivum), corn (Zea mays), blackgrass (Alopecurus myosuroides), and galium (catchweed bedstraw, Galium aparine) were planted in pots containing the same blend of loam soil and sand and treated with postemergence applications of test chemicals formulated in the same manner. Plants ranged in height from 2 to 10 cm and were in the one- to two-leaf stage for the postemergence treatment. Treated plants and untreated controls were maintained in a greenhouse for approximately 10 days, after which time all treated plants were compared to untreated controls and visually evaluated for injury. […] A dash (-) response means no test result.

[2] = system: foxtail, giant (giant foxtail, Setaria faberii); assay: Test A preemergence, foxtail, giant; conditions: Setaria faberi, pre-emergence, 240 h, 0 to 100 scale (0 no effect, 100 complete control), read-out: Plant response rating, Foxtail, Giant; for pest or weed control at 31 g/ha: 31 g ai/ha; for pest or weed control at 125 g/ha: 125 g ai/ha
Description: as §1, §2

[3] = system: foxtail, giant (giant foxtail, Setaria faberii); assay: Test A postemergence, foxtail, giant; conditions: Setaria faberi, post-emergence, 240 h, 0 to 100 scale (0 no effect, 100 complete control), read-out: Plant response rating, Foxtail, Giant; for pest or weed control at 31 g/ha: 31 g ai/ha; for pest or weed control at 125 g/ha: 125 g ai/ha
Description: as §1, §2

| SMILES | pest or weed control at 125 g/ha [1] [%] | pest or weed control at 500 g/ha [1] [%] | pest or weed control at 31 g/ha [1] [%] | pest or weed control at 31 g/ha [2] [%] | pest or weed control at 125 g/ha [2] [%] | pest or weed control at 31 g/ha [3] [%] | pest or weed control at 125 g/ha [3] [%] |
| --- | --- | --- | --- | --- | --- | --- | --- |
| O=C1OC(CCCC(F)(F)F)c2c(Oc3ncc(Cl)cn3)cccc21 (stereo not drawn) [Compound 1, 4-[(5-Chloro-2-pyrimidinyl)oxy]-3-(4,4,4-trifluorobutyl)-1(3H)-isobenzofuranone] | 90 | 100 | – | – | – | – | – |
| O=C1O[C@@H](CCCC(F)(F)F)c2c(Oc3ncc(Cl)cn3)cccc21 [Compound 2, (3S)-4-[(5-Chloro-2-pyrimidinyl)oxy]-3-(4,4,4-trifluorobutyl)-1-(3H)-isobenzofuranone] | 10 | – | 0 | – | – | – | – |
| O=C1O[C@H](CCCC(F)(F)F)c2c(Oc3ncc(Cl)cn3)cccc21 [Compound 3, (3R)-4-[(5-Chloro-2-pyrimidinyl)oxy]-3-(4,4,4-trifluorobutyl)-1-(3H)-isobenzofuranone] | 100 | – | 40 | – | – | – | – |
| O=C1OC(CCC(F)(F)F)c2c(Oc3ncc(Cl)cn3)cccc21 (stereo not drawn) [Compound 4, 4-[(5-Chloro-2-pyrimidinyl)oxy]-3-(3,3,3-trifluoropropyl)-1(3H)-isobenzofuranone] | 90 | – | 30 | – | – | – | – |
| O=C1COC(CCCC(F)(F)F)c2c(Oc3ncc(Cl)cn3)cccc21 (stereo not drawn) [Compound 5, 8-[(5-Chloro-2-pyrimidinyl)oxy]-1-(4,4,4-trifluorobutyl)-1H-2-benzopyran-4(3H)-one] | 10 | – | 10 | – | – | – | – |
| FC(F)(F)CCCC1OCc2cccc(Oc3ncc(Cl)cn3)c21 (stereo not drawn) [Compound 7, 5-chloro-2-[[1,3-dihydro-3-(4,4,4-trifluorobutyl)-4-isobenzofuranyl]oxy]-pyrimidine] | 90 | – | 30 | – | – | – | – |
| FC(F)(F)CCC1OCc2cccc(Oc3ncc(Cl)cn3)c21 (stereo not drawn) [Compound 8, 5-Chloro-2-[[1,3-dihydro-3-(3,3,3-trifluoropropyl)-4-isobenzofuranyl]oxy]pyrimidine] | 70 | – | 20 | – | – | – | – |
| FC(F)(F)CCCC1CCc2cccc(Oc3ncc(Cl)cn3)c21 (stereo not drawn) [Compound 9, 5-Chloro-2-[[2,3-dihydro-3-(4,4,4-trifluorobutyl)-1H-inden-4-yl]oxy]pyrimidine] | 60 | – | 20 | – | – | – | – |
| OC1CC(CCCC(F)(F)F)c2c(Oc3ncc(Cl)cn3)cccc21 (stereo not drawn) [Compound 10, 4-[(5-Chloro-2-pyrimidinyl)oxy]-2,3-dihydro-3-(4,4,4-trifluorobutyl)-1H-inden-1-ol] | 50 | – | 10 | – | – | – | – |
| O=C1CC(CCC(F)(F)F)c2c(Oc3ncc(Cl)cn3)cccc21 (stereo not drawn) [Compound 11, 4-[(5-Chloro-2-pyrimidinyl)oxy]-2,3-dihydro-3-(3,3,3-trifluoropropyl)-1H-inden-1-one] | 10 | – | 0 | – | – | – | – |
| CN1C(=O)c2cccc(Oc3ncc(Cl)cn3)c2C1CCCC(F)(F)F (stereo not drawn) [Compound 12, 4-[(5-Chloro-2-pyrimidinyl)oxy]-2,3-dihydro-2-methyl-3-(4,4,4-trifluorobutyl)-1H-isoindol-1-one] | 10 | – | 0 | – | – | – | – |
| O=C1NC(CCCC(F)(F)F)c2c(Oc3ncc(Cl)cn3)cccc21 (stereo not drawn) [Compound 13, 4-[(5-Chloro-2-pyrimidinyl)oxy]-2,3-dihydro-3-(4,4,4-trifluorobutyl)-1H-isoindol-1-one] | 0 | – | 0 | – | – | – | – |
| OC1(CCC(F)(F)F)CCc2cccc(Oc3ncc(Cl)cn3)c21 (stereo not drawn) [Compound 14, 7-[(5-Chloro-2-pyrimidinyl)oxy]-2,3-dihydro-1-(3,3,3-trifluoropropyl)-1H-inden-1-ol] | 0 | 50 | – | – | – | – | – |
| FC(F)(F)CC[C@H]1OCc2cccc(Oc3ncc(Cl)cn3)c21 [Compound 20, 5-Chloro-2-[[(3R)-1,3-dihydro-3-(3,3,3-trifluoropropyl)-4-isobenzofuranyl]oxy]-pyrimidine] | – | – | – | 100 | 100 | 50 | 90 |
| FC(F)(F)CC[C@@H]1OCc2cccc(Oc3ncc(Cl)cn3)c21 [Compound 21, 5-Chloro-2-[[(3S)-1,3-dihydro-3-(3,3,3-trifluoropropyl)-4-isobenzofuranyl]oxy]-pyrimidine] | – | – | – | 0 | 0 | 0 | 20 |
| O=C1c2cccc(Oc3ncc(Cl)cn3)c2C1CCCC(F)(F)F (stereo not drawn) [Compound 22, 2-[(5-Chloro-2-pyrimidinyl)oxy]-8-(4,4,4-trifluorobutyl)bicyclo[4.2.0]octa-1,3,5-trien-7-one] | – | – | – | 10 | 70 | 0 | 40 |
| O=C1c2cccc(Oc3ncc(Cl)cn3)c2C1CCC(F)(F)F (stereo not drawn) [Compound 24, 2-[(5-Chloro-2-pyrimidinyl)oxy]-8-(3,3,3-trifluoropropyl)bicyclo[4.2.0]octa-1,3,5-trien-7-one] | – | – | – | 0 | 20 | 0 | 50 |
| O=C1OCC(CCC(F)(F)F)c2c(Oc3ncc(Cl)cn3)cccc21 (stereo not drawn) [Compound 25, 5-[(5-Chloro-2-pyrimidinyl)oxy]-3,4-dihydro-4-(3,3,3-trifluoropropyl)-1H-2-benzopyran-1-one] | – | – | – | 20 | 90 | 0 | 30 |
| O=C1OCc2cccc(Oc3ncc(Cl)cn3)c2C1CCCC(F)(F)F (stereo not drawn) [Compound 26, 5-[(5-Chloro-2-pyrimidinyl)oxy]-1,4-dihydro-4-(4,4,4-trifluorobutyl)-3H-2-benzopyran-3-one] | – | – | – | 0 | 60 | 0 | 20 |
| FC(F)(F)CCCC1OCCc2cccc(Oc3ncc(Cl)cn3)c21 (stereo not drawn) [Compound 27, 5-Chloro-2-[[3,4-dihydro-1-(4,4,4-trifluorobutyl)-1H-2-benzopyran-8-yl]oxy]pyrimidine] | – | – | – | 50 | 100 | 10 | 30 |
| O=C1OCc2cccc(Oc3ncc(Cl)cn3)c2C1CCC(F)(F)F (stereo not drawn) [Compound 29, 5-[(5-Chloro-2-pyrimidinyl)oxy]-1,4-dihydro-4-(3,3,3-trifluoropropyl)-3H-2-benzopyran-3-one] | – | – | – | 0 | 20 | 0 | 10 |
| O=C1CCC(CCCC(F)(F)F)c2c(Oc3ncc(Cl)cn3)cccc21 (stereo not drawn) [Compound 30, 5-[(5-Chloro-2-pyrimidinyl)oxy]-3,4-dihydro-4-(4,4,4-trifluorobutyl)-1(2H)-naphthalenone] | – | – | – | 10 | 80 | 0 | 40 |
| FC(F)(F)CCC1OCCc2cccc(Oc3ncc(Cl)cn3)c21 (stereo not drawn) [Compound 32, 5-Chloro-2-[[3,4-dihydro-1-(3,3,3-trifluoropropyl)-1H-2-benzopyran-8-yl]oxy]pyrimidine] | – | – | – | 0 | 50 | 0 | 20 |
| FC(F)(F)CCCC1COc2cccc(Oc3ncc(Cl)cn3)c21 (stereo not drawn) [Compound 33, 5-Chloro-2-[[2,3-dihydro-3-(4,4,4-trifluorobutyl)-4-benzofuranyl]oxy]pyrimidine] | – | – | – | 10 | 100 | 20 | 20 |
| O=C1OCc2cccc(Oc3ncc(Cl)cn3)c2C1CCCCC(F)(F)F (stereo not drawn) [Compound 34, 5-[(5-Chloro-2-pyrimidinyl)oxy]-1,4-dihydro-4-(5,5,5-trifluoropentyl)-3H-2-benzopyran-3-one] | – | – | – | 0 | 10 | 0 | 20 |
| FC(F)(F)CCC1COc2cccc(Oc3ncc(Cl)cn3)c21 (stereo not drawn) [Compound 36, 5-Chloro-2-[[2,3-dihydro-3-(3,3,3-trifluoropropyl)-4-benzofuranyl]oxy]pyrimidine] | – | – | – | 0 | 60 | 0 | 20 |
